Converted amounts (≈) assume the structure as drawn.
Tested on: Pasteurella multocida
Assay: minimum inhibitory concentration (MIC)
Procedure: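 Broth microdilution MIC (Sensititre BOPO7F bovine plate, CLSI methods) of 19 antimicrobials against field isolates of P. multocida, M. haemolytica, H. somni (deep nasopharyngeal swabs) and E. coli, Enterococcus spp. (rectal swabs) from weaned dairy heifers. Incubation 16-24 h at 35 C. MIC is the lowest concentration preventing visible growth. Values with <= or > lie at the tested range limits. Trimethoprim-sulfamethoxazole is given as the trimethoprim component of a 1:19 mixture.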

COc1cc(NS(=O)(=O)c2ccc(N)cc2)nc(OC)n1 [sulfadimethoxine]
Details | minimum inhibitory concentration [µg/mL]
isolate (source animal id): 10 | > 256
isolate (source animal id): 11 | > 256
isolate (source animal id): 12 | > 256
isolate (source animal id): 19 | > 256
isolate (source animal id): 23 | > 256
isolate (source animal id): 26 | > 256
isolate (source animal id): 98 | > 256
isolate (source animal id): 104 | > 256
isolate (source animal id): 115 | > 256
isolate (source animal id): 117 | > 256
isolate (source animal id): 118 | > 256
isolate (source animal id): 121 | > 256
isolate (source animal id): 124 | > 256
isolate (source animal id): 125 | > 256
isolate (source animal id): 128 | > 256
isolate (source animal id): 131 | > 256
isolate (source animal id): 135 | > 256
isolate (source animal id): 136 | > 256
isolate (source animal id): 140 | > 256
isolate (source animal id): 144 | > 256
isolate (source animal id): 146 | > 256
isolate (source animal id): 150 | > 256
isolate (source animal id): 151 | > 256
isolate (source animal id): 153 | > 256
isolate (source animal id): 155 | > 256
isolate (source animal id): 157 | > 256
isolate (source animal id): 160 | > 256
isolate (source animal id): 164 | > 256
isolate (source animal id): 165 | > 256
isolate (source animal id): 167 | > 256
isolate (source animal id): 168 | > 256
isolate (source animal id): 169 | > 256
isolate (source animal id): 170 | > 256
isolate (source animal id): 171 | > 256
isolate (source animal id): 172 | > 256
isolate (source animal id): 173 | > 256
isolate (source animal id): 174 | > 256
isolate (source animal id): 175 | > 256
isolate (source animal id): 176 | > 256
isolate (source animal id): 177 | > 256
isolate (source animal id): 178 | > 256
isolate (source animal id): 179 | > 256
isolate (source animal id): 182 | > 256
isolate (source animal id): 192 | > 256
isolate (source animal id): 193 | > 256
isolate (source animal id): 195 | > 256
isolate (source animal id): 196 | > 256
isolate (source animal id): 197 | > 256
isolate (source animal id): 198 | > 256
isolate (source animal id): 199 | > 256
isolate (source animal id): 200 | > 256
isolate (source animal id): 201 | > 256
isolate (source animal id): 203 | > 256
isolate (source animal id): 204 | > 256
isolate (source animal id): 205 | > 256
isolate (source animal id): 206 | > 256
isolate (source animal id): 207 | > 256
isolate (source animal id): 208 | > 256
isolate (source animal id): 209 | > 256
isolate (source animal id): 210 | > 256
isolate (source animal id): 213 | > 256
isolate (source animal id): 216 | > 256
isolate (source animal id): 223 | > 256
isolate (source animal id): 227 | > 256
isolate (source animal id): 229 | > 256
isolate (source animal id): 233 | > 256
isolate (source animal id): 234 | > 256
isolate (source animal id): 237 | > 256
isolate (source animal id): 241 | > 256
isolate (source animal id): 245 | > 256
isolate (source animal id): 247 | > 256
isolate (source animal id): 250 | > 256
isolate (source animal id): 254 | > 256
isolate (source animal id): 255 | > 256
isolate (source animal id): 258 | > 256
isolate (source animal id): 261 | > 256
isolate (source animal id): 262 | > 256
isolate (source animal id): 269 | > 256
isolate (source animal id): 270 | > 256
isolate (source animal id): 274 | > 256
isolate (source animal id): 275 | > 256
isolate (source animal id): 276 | > 256
isolate (source animal id): 277 | > 256
isolate (source animal id): 278 | > 256
isolate (source animal id): 279 | > 256
isolate (source animal id): 280 | > 256
isolate (source animal id): 284 | > 256
isolate (source animal id): 285 | > 256
isolate (source animal id): 287 | > 256
isolate (source animal id): 290 | > 256
isolate (source animal id): 294 | > 256
isolate (source animal id): 295 | > 256
isolate (source animal id): 296 | > 256
isolate (source animal id): 307 | > 256
isolate (source animal id): 310 | > 256
isolate (source animal id): 311 | > 256
isolate (source animal id): 312 | > 256
isolate (source animal id): 313 | > 256
isolate (source animal id): 315 | > 256
isolate (source animal id): 316 | > 256

CC1(C)S[C@@H]2[C@H](NC(=O)[C@H](N)c3ccccc3)C(=O)N2[C@H]1C(=O)O [Ampicillin]
Details | minimum inhibitory concentration [µg/mL]
isolate (source animal id): 10 | ≤ 0.25
isolate (source animal id): 11 | ≤ 0.25
isolate (source animal id): 12 | ≤ 0.25
isolate (source animal id): 19 | ≤ 0.25
isolate (source animal id): 23 | ≤ 0.25
isolate (source animal id): 26 | ≤ 0.25
isolate (source animal id): 98 | ≤ 0.25
isolate (source animal id): 104 | ≤ 0.25
isolate (source animal id): 115 | ≤ 0.25
isolate (source animal id): 117 | ≤ 0.25
isolate (source animal id): 118 | ≤ 0.25
isolate (source animal id): 121 | ≤ 0.25
isolate (source animal id): 124 | 0.5 (≈ 1.43 µM)
isolate (source animal id): 125 | ≤ 0.25
isolate (source animal id): 128 | ≤ 0.25
isolate (source animal id): 131 | ≤ 0.25
isolate (source animal id): 135 | ≤ 0.25
isolate (source animal id): 136 | ≤ 0.25
isolate (source animal id): 140 | ≤ 0.25
isolate (source animal id): 144 | ≤ 0.25
isolate (source animal id): 146 | ≤ 0.25
isolate (source animal id): 150 | ≤ 0.25
isolate (source animal id): 151 | ≤ 0.25
isolate (source animal id): 153 | ≤ 0.25
isolate (source animal id): 155 | ≤ 0.25
isolate (source animal id): 157 | ≤ 0.25
isolate (source animal id): 160 | ≤ 0.25
isolate (source animal id): 164 | ≤ 0.25
isolate (source animal id): 165 | ≤ 0.25
isolate (source animal id): 167 | ≤ 0.25
isolate (source animal id): 168 | ≤ 0.25
isolate (source animal id): 169 | ≤ 0.25
isolate (source animal id): 170 | 8 (≈ 22.9 µM)
isolate (source animal id): 171 | ≤ 0.25
isolate (source animal id): 172 | ≤ 0.25
isolate (source animal id): 173 | ≤ 0.25
isolate (source animal id): 174 | ≤ 0.25
isolate (source animal id): 175 | ≤ 0.25
isolate (source animal id): 176 | ≤ 0.25
isolate (source animal id): 177 | ≤ 0.25
isolate (source animal id): 178 | ≤ 0.25
isolate (source animal id): 179 | ≤ 0.25
isolate (source animal id): 182 | ≤ 0.25
isolate (source animal id): 192 | ≤ 0.25
isolate (source animal id): 193 | ≤ 0.25
isolate (source animal id): 195 | ≤ 0.25
isolate (source animal id): 196 | ≤ 0.25
isolate (source animal id): 197 | ≤ 0.25
isolate (source animal id): 198 | ≤ 0.25
isolate (source animal id): 199 | ≤ 0.25
isolate (source animal id): 200 | ≤ 0.25
isolate (source animal id): 201 | ≤ 0.25
isolate (source animal id): 203 | ≤ 0.25
isolate (source animal id): 204 | ≤ 0.25
isolate (source animal id): 205 | ≤ 0.25
isolate (source animal id): 206 | ≤ 0.25
isolate (source animal id): 207 | ≤ 0.25
isolate (source animal id): 208 | ≤ 0.25
isolate (source animal id): 209 | ≤ 0.25
isolate (source animal id): 210 | ≤ 0.25
isolate (source animal id): 213 | ≤ 0.25
isolate (source animal id): 216 | ≤ 0.25
isolate (source animal id): 223 | ≤ 0.25
isolate (source animal id): 227 | ≤ 0.25
isolate (source animal id): 229 | ≤ 0.25
isolate (source animal id): 233 | ≤ 0.25
isolate (source animal id): 234 | ≤ 0.25
isolate (source animal id): 237 | ≤ 0.25
isolate (source animal id): 241 | ≤ 0.25
isolate (source animal id): 245 | ≤ 0.25
isolate (source animal id): 247 | ≤ 0.25
isolate (source animal id): 250 | ≤ 0.25
isolate (source animal id): 254 | ≤ 0.25
isolate (source animal id): 255 | ≤ 0.25
isolate (source animal id): 258 | ≤ 0.25
isolate (source animal id): 261 | ≤ 0.25
isolate (source animal id): 262 | ≤ 0.25
isolate (source animal id): 269 | ≤ 0.25
isolate (source animal id): 270 | ≤ 0.25
isolate (source animal id): 274 | ≤ 0.25
isolate (source animal id): 275 | ≤ 0.25
isolate (source animal id): 276 | ≤ 0.25
isolate (source animal id): 277 | ≤ 0.25
isolate (source animal id): 278 | ≤ 0.25
isolate (source animal id): 279 | ≤ 0.25
isolate (source animal id): 280 | ≤ 0.25
isolate (source animal id): 284 | ≤ 0.25
isolate (source animal id): 285 | ≤ 0.25
isolate (source animal id): 287 | ≤ 0.25
isolate (source animal id): 290 | ≤ 0.25
isolate (source animal id): 294 | ≤ 0.25
isolate (source animal id): 295 | ≤ 0.25
isolate (source animal id): 296 | ≤ 0.25
isolate (source animal id): 307 | ≤ 0.25
isolate (source animal id): 310 | ≤ 0.25
isolate (source animal id): 311 | ≤ 0.25
isolate (source animal id): 312 | ≤ 0.25
isolate (source animal id): 313 | ≤ 0.25
isolate (source animal id): 315 | ≤ 0.25
isolate (source animal id): 316 | ≤ 0.25

Source: the supplement of paper PMC8612539
